Results: patent publication US8455475B2 (Gruenenthal GmbH, priority 2009, dated 2013)

Legend:
[1] = biological target: T1, human B1R (bradykinin receptor 1) (Homo sapiens, UniProt P46663); assay: FLIPR Ca2+ assay (Fluo-4) on CHO K1 cells stably transfected with the human B1R gene (hB1R cells): % inhibition at 10 μM / IC50, agonist Lys-Des-Arg9-bradykinin; assay type: cell-based; conditions: CHO-K1, human B1R
T1 construct: expressed in transfected cells; host or cells: CHO K1 cells
T1 sequence (P46663 1-353): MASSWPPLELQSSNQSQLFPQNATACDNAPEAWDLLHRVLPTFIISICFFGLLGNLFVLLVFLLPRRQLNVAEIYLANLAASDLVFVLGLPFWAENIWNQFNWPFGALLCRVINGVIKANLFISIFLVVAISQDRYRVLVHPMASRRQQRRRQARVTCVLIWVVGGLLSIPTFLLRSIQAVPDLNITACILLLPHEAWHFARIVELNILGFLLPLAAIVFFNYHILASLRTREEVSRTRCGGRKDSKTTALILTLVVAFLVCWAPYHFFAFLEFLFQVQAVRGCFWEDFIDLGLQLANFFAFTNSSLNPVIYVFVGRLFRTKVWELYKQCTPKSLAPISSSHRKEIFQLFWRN
Procedure, shortened: (§1)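 Cells were Fluo-4-loaded, then test compound (10 μM, or a concentration series for IC50) was preincubated 10–20 min before agonist challenge at EC80: Lys-Des-Arg9-bradykinin for hB1R, Des-Arg9-bradykinin for rB1R. Peak Ca2+ fluorescence (ex 488/em 540 nm) gave % inhibition versus maximal achievable inhibition.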

[2] = biological target: T2, rat B1R (bradykinin receptor 1) (Rattus norvegicus, UniProt P97583); assay: FLIPR Ca2+ assay (Fluo-4) on CHO K1 cells stably transfected with the B1R gene of the rat (rB1R cells): % inhibition at 10 μM / IC50, agonist Des-Arg9-bradykinin; assay type: cell-based; conditions: CHO-K1, rat B1R
T2 construct: expressed in transfected cells; host or cells: CHO K1 cells
T2 sequence (P97583 1-337): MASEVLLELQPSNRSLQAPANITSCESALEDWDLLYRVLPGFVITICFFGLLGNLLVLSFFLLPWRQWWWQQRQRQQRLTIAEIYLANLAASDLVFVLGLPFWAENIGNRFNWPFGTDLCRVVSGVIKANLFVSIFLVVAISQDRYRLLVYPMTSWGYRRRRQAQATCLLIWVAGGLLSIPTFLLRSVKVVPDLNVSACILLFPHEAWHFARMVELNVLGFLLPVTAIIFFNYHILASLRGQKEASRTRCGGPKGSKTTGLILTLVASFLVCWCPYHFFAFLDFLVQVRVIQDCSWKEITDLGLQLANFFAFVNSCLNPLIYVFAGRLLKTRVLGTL
Procedure, shortened: as §1

inhibition at 10 µM [1] | inhibition at 10 µM [2] | SMILES
57% | 105% | O=C(N[C@@H]1CCCc2ccc(C(=O)N3CCC4(CCCN(c5ccncc5)C4)CC3)cc21)c1ccccc1Cl [Example H-80]
78% | 103% | O=C(N[C@@H]1CCCc2ccc(C(=O)N3CCC4(CCCN(c5ccncc5)C4)C3)cc21)c1ccccc1Cl (stereo partly drawn) [Example H-81, 2-Chloro-N-[(1R)-7-(7-pyridin-4-yl-3,7-diazaspiro[4.5]decane-3-carbonyl)-1,2,3,4-tetrahydro-naphthalen-1-yl]-benzamide]
100% | 104% | O=C(N[C@@H]1CCCc2cc(F)c(C(=O)N3CCC4(CCN(c5ccncc5)CC4)C3)cc21)c1ccccc1Cl [Example H-82, 2-Chloro-N-[(1R)-6-fluoro-7-(8-pyridin-4-yl-3,8-diazaspiro[4.5]decane-3-carbonyl)-1,2,3,4-tetrahydro-naphthalen-1-yl]-benzamide]
100% | 105% | O=C(N[C@@H]1CCc2ccc(C(=O)N3CCC4(CC3)CCN(c3ccncc3)C4)cc21)c1c(Cl)cccc1C(F)(F)F [Example H-83, 2-Chloro-N-[(1R)-6-(3-pyridin-4-yl-3,8-diazaspiro[4.5]decane-8-carbonyl)-2,3-dihydro-1H-inden-1-yl]-6-(trifluoromethyl)-benzamide]
100% | 104% | O=C(N[C@@H]1CCc2ccc(C(=O)N3CCC4(CCN(c5ccncc5)CC4)C3)cc21)c1cncnc1 [Example H-84, N-[(1R)-6-(8-Pyridin-4-yl-3,8-diazaspiro[4.5]decane-3-carbonyl)-2,3-dihydro-1H-inden-1-yl]-pyrimidine-5-carboxylic acid amide]
100% | 103% | O=C(N[C@@H]1CCc2ccc(C(=O)N3CCC4(CC3)CCN(c3ccncc3)CC4)cc21)c1c(Cl)cccc1C(F)(F)F [Example H-85, 2-Chloro-N-[(1R)-6-(9-pyridin-4-yl-3,9-diazaspiro[5.5]undecane-3-carbonyl]-2,3-dihydro-1H-inden-1-yl]-6-(trilfuoromethyl)-benzamide]
95% | 79% | O=C(N[C@@H]1CCc2ccc(C(=O)N3CCC4(CC3)CCN(c3ccncc3)C4)cc21)c1cncnc1 [Example H-86, N-[(1R)-6-(3-Pyridin-4-yl-3,8-diazaspiro[4.5]decane-8-carbonyl)-2,3-dihydro-1H-inden-1-yl]-pyrimidine-5-carboxylic acid amide]
99% | 103% | O=C(N[C@@H]1CCCc2cc(F)c(C(=O)N3CCC4(CC3)CCN(c3ccncc3)C4)cc21)c1ccccc1Cl [Example H-87, 2-Chloro-N-[(1R)-6-fluoro-7-(3-pyridin-4-yl-3,8-diazaspiro[4.5]decane-8-carbonyl)-1,2,3,4-tetrahydro-naphthalen-1-yl]-benzamide]
100% | 104% | O=C(N[C@@H]1CCCc2cc(F)c(C(=O)N3CCC4(CC3)CCN(c3ccncc3)CC4)cc21)c1ccccc1Cl [Example H-88]
99% | 103% | O=C(N[C@@H]1CCc2cc(F)c(C(=O)N3CCC4(CC3)CCN(c3ccncc3)C4)cc21)c1ccccc1Cl [Example H-89, 2-Chloro-N-[(1R)-5-fluoro-6-(3-pyridin-4-yl-3,8-diazaspiro[4.5]decane-8-carbonyl)-2,3-dihydro-1H-inden-1-yl]-benzamide]
100% | 103% | O=C(N[C@@H]1CCc2cc(F)c(C(=O)N3CCC4(CC3)CCN(c3ccncc3)CC4)cc21)c1ccccc1Cl [Example H-90, 2-Chloro-N-[(1R)-5-fluoro-6-(9-pyridin-4-yl-3,9-diazaspiro[5.5]undecane-3-carbonyl)-2,3-dihydro-1H-inden-1-yl]-benzamide]
100% | 104% | O=C(N[C@@H]1CCc2ccc(C(=O)N3CCC4(CC3)CCN(c3ccncc3)C4)cc21)c1ccccc1Cl [Example H-91, 2-Chloro-N-[(1R)-6-(3-pyridin-4-yl-3,8-diazaspiro[4.5]decane-8-carbonyl)-2,3-dihydro-1H-inden-1-yl]-benzamide]
96% | 104% | O=C(N[C@@H]1CCOc2cc(F)c(C(=O)N3CCC4(CC3)CCN(c3ccncc3)CC4)cc21)c1ccccc1Cl [Example H-92, 2-Chloro-N-[(4R)-7-fluoro-6-(9-pyridin-4-yl-3,9-diazaspiro[5.5]undecane-3-carbonyl)-3,4-dihydro-2H-chromen-4-yl]-benzamide]
100% | 103% | Cc1cc2c(cc1C(=O)N1CCC3(CCN(c4ccncc4)CC3)C1)[C@H](NC(=O)c1ccccc1Cl)CC2 [Example H-93, 2-Chloro-N-[(1R)-5-methyl-6-(8-pyridin-4-yl-3,8-diazaspiro[4.5]decane-3-carbonyl)-2,3-dihydro-1H-inden-1-yl]-benzamide]
100% | 98% | O=C(N[C@@H]1CCc2ccc(C(=O)N3CCC4(CCN(c5ccncc5)CC4)C3)cc21)c1cccc(Cl)c1Cl [Example H-94, 2,3-Dichloro-N-[(1R)-6-(8-pyridin-4-yl-3,8-diazaspiro[4.5]decane-3-carbonyl)-2,3-dihydro-1H-inden-1-yl]-benzamide]
100% | 98% | O=C(N[C@@H]1CCc2ccc(C(=O)N3CCC4(CC3)CCN(c3ccncc3)CC4)cc21)c1cccc(Cl)c1Cl [Example H-95, 2,3-Dichloro-N-[(1R)-6-(9-pyridin-4-yl-3,9-diazaspiro[5.5]undecane-3-carbonyl)-2,3-dihydro-1H-inden-1-yl]-benzamide]
100% | 104% | O=C(c1ccc2c(c1)[C@H](N1Cc3cccc(Cl)c3C1=O)CC2)N1CCC2(CCN(c3ccncc3)CC2)C1 [Example H-96, 7-Chloro-2-[(1R)-6-(8-pyridin-4-yl-3,8-diazaspiro[4.5]decane-3-carbonyl)-2,3-dihydro-1H-inden-1-yl]-2,3-dihydro-isoindol-1-one]
6% | 90% | O=C(N[C@@H]1CCc2ccc(C(=O)N3CCC4(CCC(C(=O)N5CCn6ncnc6C5)CC4)CC3)cc21)c1ccccc1Cl [Example H-97, 2-Chloro-N-[(1R)-6-[9-(5,6,7,8-tetrahydro-[1,2,4]triazolo[1,5-a]pyrazine-7-carbonyl)-3-azaspiro[5.5]undecane-3-carbonyl]-2,3-dihydro-1H-inden-1-yl]-benzamide]
100% | 108% | O=C(N[C@@H]1CCc2ccc(C(=O)N3CCC4(CCN(c5ccncc5)CC4)C3)cc21)c1cc(Cl)ccc1Cl [Example H-98, 2,5-Dichloro-N-[(1R)-6-(8-pyridin-4-yl-3,8-diazaspiro[4.5]decane-3-carbonyl)-2,3-dihydro-1H-inden-1-yl]-benzamide]
100% | 105% | O=C(N[C@@H]1CCc2ccc(C(=O)N3CCC4(CCN(c5ccncc5)CC4)C3)cc21)c1c(Cl)cccc1Cl [Example H-99, 2,6-Dichloro-N-[(1R)-6-(8-pyridin-4-yl-3,8-diazaspiro[4.5]decane-3-carbonyl)-2,3-dihydro-1H-inden-1-yl]-benzamide]
100% | 108% | O=C(N[C@@H]1CCc2ccc(C(=O)N3CCC4(CC3)CCN(c3ccncc3)CC4)cc21)c1c(Cl)cccc1Cl [Example H-100, 2,6-Dichloro-N-[(1R)-6-(9-pyridin-4-yl-3,9-diazaspiro[5.5]undecane-3-carbonyl)-2,3-dihydro-1H-inden-1-yl]-benzamide]
97% | 107% | O=C(N[C@@H]1CCc2ccc(C(=O)N3CCC4(CCN(c5ccncc5)CC4)C3)cc21)c1ccccc1F [Example H-101, 2-Fluoro-N-[(1R)-6-(8-pyridin-4-yl-3,8-diazaspiro[4.5]decane-3-carbonyl)-2,3-dihydro-1H-inden-1-yl]-benzamide]
100% | 109% | O=C(N[C@@H]1CCc2ccc(C(=O)N3CCC4(CC3)CCN(c3ccncc3)CC4)cc21)c1ccccc1F [Example H-102, 2-Fluoro-N-[(1R)-6-(9-pyridin-4-yl-3,9-diazaspiro[5.5]undecane-3-carbonyl)-2,3-dihydro-1H-inden-1-yl]-benzamide]
99% | 106% | COc1cc(C)c(C(=O)N[C@@H]2CCc3ccc(C(=O)N4CCC5(CCN(c6ccncc6)CC5)C4)cc32)cc1C [Example H-103, 4-Methoxy-2,5-dimethyl-N-[(1R)-6-(8-pyridin-4-yl-3,8-diazaspiro[4.5]decane-3-carbonyl)-2,3-dihydro-1H-inden-1-yl]-benzamide]
